Source: PubChem BioAssay (NCI)
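Method: 48-hour compound exposure of cells in 96-well plates, five concentrations, linear interpolation of endpoints. Definition used: TGI = concentration required for complete inhibition of growth.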

What was measured:
Test in all cases: NCI anticancer screen, dose series, 48 h
786-0 renal = system: 786-0 renal
A498 renal = system: A498 renal
A549 NSCLC = system: A549 NSCLC
ACHN renal = system: ACHN renal
CAKI-1 renal = system: CAKI-1 renal
CCRF-CEM leukemia = system: CCRF-CEM leukemia
COLO 205 colon = system: COLO 205 colon
DU-145 prostate = system: DU-145 prostate
EKVX NSCLC = system: EKVX NSCLC
HCC-2998 colon = system: HCC-2998 colon
HCT-116 colon = system: HCT-116 colon
HCT-15 colon = system: HCT-15 colon
HL-60(TB) leukemia = system: HL-60(TB) leukemia
HOP-62 NSCLC = system: HOP-62 NSCLC
HOP-92 NSCLC = system: HOP-92 NSCLC
HS 578T breast = system: HS 578T breast
HT29 colon = system: HT29 colon
IGROV1 ovarian = system: IGROV1 ovarian
K-562 leukemia = system: K-562 leukemia
KM12 colon = system: KM12 colon
LOX IMVI melanoma = system: LOX IMVI melanoma
M14 melanoma = system: M14 melanoma
MALME-3M melanoma = system: MALME-3M melanoma
MCF7 breast = system: MCF7 breast
MDA-MB-231 breast = system: MDA-MB-231 breast
MDA-MB-435 = system: MDA-MB-435
MDA-N = system: MDA-N
MOLT-4 leukemia = system: MOLT-4 leukemia
NCI-H23 lung = system: NCI-H23 lung
NCI-H460 lung = system: NCI-H460 lung
NCI-H522 lung = system: NCI-H522 lung
NCI/ADR-RES ovarian = system: NCI/ADR-RES ovarian
OVCAR-3 ovarian = system: OVCAR-3 ovarian
OVCAR-4 ovarian = system: OVCAR-4 ovarian
OVCAR-5 ovarian = system: OVCAR-5 ovarian
OVCAR-8 ovarian = system: OVCAR-8 ovarian
PC-3 prostate = system: PC-3 prostate
RPMI-8226 leukemia = system: RPMI-8226 leukemia
RXF 393 renal = system: RXF 393 renal
SF-268 CNS = system: SF-268 CNS
SF-295 CNS = system: SF-295 CNS
SF-539 CNS = system: SF-539 CNS
SK-MEL-2 melanoma = system: SK-MEL-2 melanoma
SK-MEL-28 melanoma = system: SK-MEL-28 melanoma
SK-MEL-5 melanoma = system: SK-MEL-5 melanoma
SK-OV-3 ovarian = system: SK-OV-3 ovarian
SN12C renal = system: SN12C renal
SNB-19 CNS = system: SNB-19 CNS
SNB-75 CNS = system: SNB-75 CNS
SW-620 colon = system: SW-620 colon
T-47D breast = system: T-47D breast
TK-10 renal = system: TK-10 renal
U251 CNS = system: U251 CNS
UACC-257 melanoma = system: UACC-257 melanoma
UO-31 renal = system: UO-31 renal

Compound: COC(=O)c1ccc2c(c1)CC1(C2)Cc2cc3c(cc2C1=O)CCC3 (stereo not given)
- TGI (786-0 renal): > 100 µM
- TGI (A498 renal): > 100 µM
- TGI (A549 NSCLC): > 100 µM
- TGI (ACHN renal): > 100 µM
- TGI (CAKI-1 renal): 96.5 µM
- TGI (CCRF-CEM leukemia): 52.7 µM
- TGI (COLO 205 colon): 38.7 µM
- TGI (DU-145 prostate): > 100 µM
- TGI (EKVX NSCLC): > 100 µM
- TGI (HCC-2998 colon): > 100 µM
- TGI (HCT-116 colon): > 100 µM
- TGI (HCT-15 colon): > 100 µM
- TGI (HL-60(TB) leukemia): 39.8 µM
- TGI (HOP-62 NSCLC): > 100 µM
- TGI (HOP-92 NSCLC): > 100 µM
- TGI (HS 578T breast): > 100 µM
- TGI (HT29 colon): 34.7 µM
- TGI (IGROV1 ovarian): > 100 µM
- TGI (K-562 leukemia): > 100 µM
- TGI (KM12 colon): 23.1 µM
- TGI (LOX IMVI melanoma): 94.2 µM
- TGI (M14 melanoma): 42.2 µM
- TGI (MALME-3M melanoma): 82.8 µM
- TGI (MCF7 breast): 50.9 µM
- TGI (MDA-MB-231 breast): > 100 µM
- TGI (MDA-MB-435): 57.4 µM
- TGI (MDA-N): 61.1 µM
- TGI (MOLT-4 leukemia): 29.2 µM
- TGI (NCI-H23 lung): > 100 µM
- TGI (NCI-H460 lung): > 100 µM
- TGI (NCI-H522 lung): > 100 µM
- TGI (NCI/ADR-RES ovarian): 51.3 µM
- TGI (OVCAR-3 ovarian): 87.8 µM
- TGI (OVCAR-4 ovarian): > 100 µM
- TGI (OVCAR-5 ovarian): > 100 µM
- TGI (OVCAR-8 ovarian): > 100 µM
- TGI (PC-3 prostate): > 100 µM
- TGI (RPMI-8226 leukemia): 38.7 µM
- TGI (RXF 393 renal): > 100 µM
- TGI (SF-268 CNS): > 100 µM
- TGI (SF-295 CNS): > 100 µM
- TGI (SF-539 CNS): > 100 µM
- TGI (SK-MEL-2 melanoma): > 100 µM
- TGI (SK-MEL-28 melanoma): > 100 µM
- TGI (SK-MEL-5 melanoma): 21.2 µM
- TGI (SK-OV-3 ovarian): > 100 µM
- TGI (SN12C renal): > 100 µM
- TGI (SNB-19 CNS): > 100 µM
- TGI (SNB-75 CNS): 83.6 µM
- TGI (SW-620 colon): > 100 µM
- TGI (T-47D breast): > 100 µM
- TGI (TK-10 renal): > 100 µM
- TGI (U251 CNS): > 100 µM
- TGI (UACC-257 melanoma): 46.7 µM
- TGI (UO-31 renal): > 100 µM
